Consider 74 molecules from PMC8869358, “High-Throughput Chemical Screening and Structure-Based Models to Predict hERG Inhibition” (Biology, 2022).

Where a name gives a salt, the structure may show the parent alone.

The assay deals with hERG (Homo sapiens, UniProt Q12809). Nature of the assay: cell-based. As to conditions: (-LOG10(IC50), µM).
hERG, sequence (Q12809 whole entry): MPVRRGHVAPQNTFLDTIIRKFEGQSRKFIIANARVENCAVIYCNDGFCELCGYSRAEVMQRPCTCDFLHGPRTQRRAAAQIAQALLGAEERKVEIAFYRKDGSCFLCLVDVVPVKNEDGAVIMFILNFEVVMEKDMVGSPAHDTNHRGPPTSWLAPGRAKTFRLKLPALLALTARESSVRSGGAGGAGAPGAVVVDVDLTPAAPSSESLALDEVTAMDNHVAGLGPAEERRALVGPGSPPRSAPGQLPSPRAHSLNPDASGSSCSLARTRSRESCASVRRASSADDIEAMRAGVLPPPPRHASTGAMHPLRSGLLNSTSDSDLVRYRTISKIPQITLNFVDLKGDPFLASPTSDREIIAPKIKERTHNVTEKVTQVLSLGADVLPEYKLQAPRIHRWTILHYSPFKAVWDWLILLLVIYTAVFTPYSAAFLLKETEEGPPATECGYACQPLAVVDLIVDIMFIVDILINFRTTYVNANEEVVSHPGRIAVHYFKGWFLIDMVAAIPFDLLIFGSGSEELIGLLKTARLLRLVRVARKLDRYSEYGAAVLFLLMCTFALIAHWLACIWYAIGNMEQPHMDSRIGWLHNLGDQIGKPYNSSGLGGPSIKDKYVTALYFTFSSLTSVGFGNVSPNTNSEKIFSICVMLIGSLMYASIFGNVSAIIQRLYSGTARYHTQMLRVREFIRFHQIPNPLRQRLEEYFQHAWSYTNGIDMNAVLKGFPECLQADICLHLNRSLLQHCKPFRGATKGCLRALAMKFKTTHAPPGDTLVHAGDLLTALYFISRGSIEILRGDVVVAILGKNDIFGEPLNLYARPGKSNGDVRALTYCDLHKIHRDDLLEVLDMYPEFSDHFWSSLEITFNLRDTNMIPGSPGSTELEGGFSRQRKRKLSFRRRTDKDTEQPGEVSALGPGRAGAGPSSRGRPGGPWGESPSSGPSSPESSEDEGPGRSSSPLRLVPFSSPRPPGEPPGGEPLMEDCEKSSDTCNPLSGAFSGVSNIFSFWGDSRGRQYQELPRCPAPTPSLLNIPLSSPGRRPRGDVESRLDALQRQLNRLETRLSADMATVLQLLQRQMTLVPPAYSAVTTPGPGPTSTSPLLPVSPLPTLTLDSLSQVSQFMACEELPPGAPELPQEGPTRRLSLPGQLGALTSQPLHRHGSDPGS
On to `Cc1nc(-c2ccc3c(c2)CCN(CCC2CCC(NC(=O)/C=C/c4ccc(F)cc4)CC2)CC3)no1` (centres unmarked) [SB413217A], for which half-maximal inhibition (IC50) required 1.02 µM. To `CCOC(=O)COc1ccc2c(c1)CC(NCC(O)c1cccc(Cl)c1)CC2` (centres unmarked) [SR58611] belongs 1.45 µM; to `COc1cccc(-c2ccc(/C=C\CN3CCCCCC3)cc2Cl)c1` [SR125047], 1.48 µM; to `CN(C)C(=O)NC1(c2ccccc2)CCN(CC[C@@]2(c3ccc(F)c(F)c3)CN(C(=O)c3ccccc3)CCO2)CC1` [SR144190], 20.3 µM. Next, `CN(C)C(=O)NC1(c2ccccc2)CCN(CCC[C@]2(c3ccc(Cl)c(Cl)c3)CCCN(C(=O)c3ccccc3)C2)CC1` [SSR146977]: 1.71 µM; `O=C(N[C@@H](c1ccccc1)[C@@H]1CCCCN1)c1cccc(C(F)(F)F)c1Cl` [SSR504734]: 50.9 µM; `O=C(N[C@H](c1ccccc1)[C@@H]1CN2CCC1CC2)c1c(Cl)ccc(C(F)(F)F)c1Cl` [SSR 103800]: 30.2 µM. To `COc1ccc2cc(S(=O)(=O)N[C@H](CC(=O)N[C@H](Cc3ccc(CN4[C@H](C)CCC[C@@H]4C)cc3)C(=O)N(C)C(C)C)c3ccc4c(c3)OCO4)ccc2c1` [SSR 240612] belongs 7.07 µM; to `CN(C)C(=O)C1(N2CCCCC2)CCN(CC[C@@]2(c3ccc(Cl)c(Cl)c3)CN(C(=O)c3ccccc3)CCO2)CC1` [SSR 241586 HCl], 9.49 µM. In turn, `CC(C)(C)NC(=O)[C@@H]1C[C@@H]2CCCC[C@@H]2CN1C[C@@H](O)[C@H](Cc1ccccc1)NC(=O)[C@H](CC(N)=O)NC(=O)c1ccc2ccccc2n1` [Saquinavir mesylate] gave a concentration for half-maximal inhibition (IC50) of 22.2 µM. `Cc1nc2n(c(=O)c1CCN1CCC(C(=O)c3ccc(F)cc3)CC1)CCS2` [Setoperone] showed a 50% inhibitory concentration (IC50) of 9.89 µM. This IC50 lies about 2.2-fold lower than the previous one.

Consider `CCCc1ccc(OCC(=O)N2CCN(C(=O)COc3ccc(CCC)cc3OC)CC2)c(OC)c1` [Simetride], for which 1.4 µM corresponded to half-maximal inhibition (IC50). Next, `CCCCCCCCCCCCc1ccccc1S(=O)(=O)O` [Sodium dodecylbenzenesulfonate]: 24.5 µM; `CNC(=O)c1cc(Oc2ccc(NC(=O)Nc3ccc(Cl)c(C(F)(F)F)c3)cc2)ccn1` [Sorafenib tosylate]: 22.1 µM. To `O=C(CCCN1CCC2(CC1)C(=O)NCN2c1ccccc1)c1ccc(F)cc1` [Spiperone] belongs 1.76 µM; to `CCCN(CC)CC1COC2(CCC(C(C)(C)C)CC2)O1` (centres unmarked) [Spiroxamine], 34.7 µM.

Regarding `O=C1NCN(c2ccccc2)C12CCN(CC1COc3ccccc3O1)CC2` (centres unmarked) [Spiroxatrine], the IC50 was 6.24 µM. To `CC[N+](CC)(CC)CCOc1ccc(/C=C/c2ccccc2)cc1` [Stilonium iodide] belongs 8.82 µM; to `C=C(Cl)CSC(=S)N(CC)CC` [Sulfallate], 51.5 µM; to `CCCCCCCCN[C@H](C)[C@@H](O)c1ccc(SC(C)C)cc1` [Suloctidil], 0.29 µM. To `CCN1CCCC1CNC(=O)c1cc(S(N)(=O)=O)ccc1OC` (centres unmarked) [Sulpiride] belongs 34.7 µM; to `CCc1c(C(=O)NN2CCCCC2)nn(-c2ccc(Cl)cc2Cl)c1-c1ccc(Br)cc1` [Surinabant], 6.92 µM; to `CCOc1ccccc1OCCN[C@H](C)Cc1ccc(OC)c(S(N)(=O)=O)c1` [Tamsulosin hydrochloride], 19.7 µM. Next, `CC(C)(C)C(O)(CCc1ccc(Cl)cc1)Cn1cncn1` (centres unmarked) [Tebuconazole]: 21.9 µM. The molecule `CCc1nn(C)c(C(=O)NCc2ccc(C(C)(C)C)cc2)c1Cl` [Tebufenpyrad] had a half-inhibitory concentration (IC50) of 24.5 µM. To `CCOP(=S)(Oc1cnc(C(C)(C)C)nc1)OC(C)C` (centres unmarked) [Tebupirimfos] belongs 43.6 µM; to `CCCCCNC(=N)N/N=C/c1c[nH]c2ccc(OC)cc12` [Tegaserod], 9.16 µM. Next, `CN(C/C=C/C#CC(C)(C)C)Cc1cccc2ccccc12` [Terbinafine]: 9.52 µM; `CCN(CC)CCOc1ccc(Cc2ccccc2)cc1` [Tesmilifene]: 8.82 µM. Next, `CCC(=O)O[C@H]1CC[C@H]2[C@@H]3CCC4=CC(=O)CC[C@]4(C)[C@H]3CC[C@]12C` [Testosterone propionate]: 25.8 µM; `CCCC[P+](CCCC)(CCCC)CCCC` [Tetrabutylphosphonium bromide]: 16 µM; `CCCC[P+](CCCC)(CCCC)CCCC` [Tetrabutylphosphonium chloride]: 23.2 µM. As for `CCCCCCCCCCCCCC[n+]1ccccc1` [Tetradecylpyridinium bromide], half-maximal inhibition (IC50) was put at 5.49 µM. To `CCCCCCCCCCCCCC[N+](C)(C)C` [Tetradonium bromide] belongs 18.3 µM; to `CCCCC(CC)C(=O)OCCOCCOCCOCCOC(=O)C(CC)CCCC` (centres unmarked) [Tetraethylene glycol di(2-ethylhexanoate)], 11 µM; to `CC(C)=CC1C(C(=O)OCN2C(=O)C3=C(CCCC3)C2=O)C1(C)C` (centres unmarked) [Tetramethrin], 40.4 µM.

As to `CN1CCC(N(Cc2cccs2)c2ccccc2)CC1` [Thenalidine], the IC50 is 4.96 µM. To `CS/C(C)=N/OC(=O)N(C)SN(C)C(=O)O/N=C(\C)SC` [Thiodicarb] belongs 43.6 µM; to `CN1CCN(CCCN2c3ccccc3Sc3ccc(S(=O)(=O)N(C)C)cc32)CC1` [Thioproperazine dimethanesulfonate], 4.96 µM. Next, `CCN(CC)CCSC(=O)C(c1ccccc1)c1ccccc1` [Thiphenamil]: 3.01 µM; `CCCCCCCCCCCCCCCC[N+](C)(C)CCN(Cc1ccc(OC)cc1)c1ncccn1` [Thonzonium bromide]: 0.409 µM; `COC1CC(=C(c2cccs2)c2cccs2)C[N+](C)(C)C1` (centres unmarked) [Timepidium bromide]: 19.7 µM. Next, `CCOC(=O)c1c(N)sc2c1CCN(Cc1ccccc1)C2` [Tinoridine]: 21.3 µM; `CC(C)C(=O)OCc1cccc(OC(=O)[C@@H]2N3C(=O)[C@@H](NC(=O)Cc4ccccc4)[C@H]3SC2(C)C)c1` [Tobicillin]: 20.5 µM; `Cc1ccc(N(SC(F)(Cl)Cl)S(=O)(=O)N(C)C)cc1` [Tolylfluanid]: 19.5 µM. In the case of `CC(=O)c1cc2c(cc1C)C(C)(C)C(C)CC2(C)C` (centres unmarked) [Tonalide], half-maximal inhibition (IC50) required 20.3 µM. Next, `N#Cc1c(-c2ccc(Cl)cc2)[nH]c(C(F)(F)F)c1Br` [Tralopyril]: 11 µM; `COc1cc2c(cc1OC)-c1c/c(=N\c3c(C)cc(C)cc3C)n(C)c(=O)n1CC2` [Trequinsin hydrochloride]: 14 µM. To `CC(C)N(C(=O)SCC(Cl)=C(Cl)Cl)C(C)C` [Tri-allate] belongs 20 µM; to `Cc1ccccc1OP(=O)(Oc1ccccc1C)Oc1ccccc1C` [Tri-o-cresyl phosphate], 21.1 µM. To `CCCC[P+](C)(CCCC)CCCC` [Tributylmethylphosphonium methyl sulfate] belongs 35.1 µM. In the case of `CCCCOCCOC(=O)COc1nc(Cl)c(Cl)cc1Cl` [Triclopyr butotyl], half-maximal inhibition (IC50) was put at 34.7 µM. Consider `Oc1cc(Cl)ccc1Oc1ccc(Cl)cc1Cl` [Triclosan], for which the half-inhibitory concentration (IC50) is 45.2 µM.

The molecule `C=CC(=O)OCC1CC2CC1C1CCC(COC(=O)C=C)C21` (centres unmarked) [Tricyclodecanedimethanol diacrylate] gave an IC50 of 36 µM. The IC50 values of the last two molecules are within 1.5-fold of each other. To `CCCCCCCCCCCCCN1CC(C)OC(C)C1` (centres unmarked) [Tridemorph] belongs 16.4 µM. Next, `CCCOC/C(=N\c1ccc(Cl)cc1C(F)(F)F)n1ccnc1` [Triflumizole]: 36 µM; `CCCCCCCCCCCCCC[P+](CCCCCC)(CCCCCC)CCCCCC` [Trihexyltetradecylphosphonium bromide]: 0.44 µM. To `CCCCCCCCCCCCCC[P+](CCCCCC)(CCCCCC)CCCCCC` [Trihexyltetradecylphosphonium chloride] belongs 0.875 µM; to `CCCCCCCCCCCCCC[P+](CCCCCC)(CCCCCC)CCCCCC.N#C[N-]C#N` [Trihexyltetradecylphosphonium dicyanamide], 0.55 µM; to `CCCCCCCCCCCCCC[P+](CCCCCC)(CCCCCC)CCCCCC` [Trihexyltetradecylphosphonium hexafluorophosphate], 0.47 µM. `CCC(COC(=O)c1cc(OC)c(OC)c(OC)c1)(c1ccccc1)N(C)C` (centres unmarked) [Trimebutine maleate] had a concentration for half-maximal inhibition (IC50) of 16.9 µM. For `CC(CN(C)C)CN1c2ccccc2CCc2ccccc21` (centres unmarked) [Trimipramine hydrogen maleate], the IC50 was 14.5 µM.

`CCN(CC)CCOc1ccc(C(O)(Cc2ccc(Cl)cc2)c2ccc(C)cc2)cc1` (centres unmarked) [Triparanol] gave a concentration for half-maximal inhibition (IC50) of 1.11 µM.

Take `CN(C)CCN(Cc1ccccc1)c1ccccn1` [Tripelennamine citrate]: the IC50 is 12.7 µM. For the molecule `C(=C(c1ccccc1)c1ccccc1)c1ccccc1` [Triphenylethylene], the 50% inhibitory concentration (IC50) is 18.1 µM. To `O[Si](c1ccccc1)(c1ccccc1)c1ccccc1` [Triphenylsilanol] belongs 21.9 µM; to `O=P(OCC(Br)CBr)(OCC(Br)CBr)OCC(Br)CBr` (centres unmarked) [Tris(2,3-dibromopropyl) phosphate], 16.9 µM; to `CN1[C@@H]2CC[C@H]1C[C@@H](OC(=O)c1c[nH]c3ccccc13)C2` [Tropisetron], 12.9 µM. Next, `CCCOc1ccc(S(=O)(=O)N2CCN(CC)CC2)cc1-c1nc2c(CC)n(Cc3ccccn3)nc2c(=O)[nH]1` [UK-343664]: 21.9 µM. In turn, `CN[C@H]1CC[C@@H](c2ccc(Cl)c(Cl)c2)c2ccc(S(N)(=O)=O)cc21` [UK-373911] gave an IC50 of 6.92 µM. Molecule `CSc1ccc(Oc2ccc(S(N)(=O)=O)cc2CN(C)C)cc1C` [UK-416244] had a half-maximal inhibitory concentration (IC50) of 8.71 µM.

`CC[C@]12CCCN3CCc4c(n(c5ccccc45)[C@@](O)(C(=O)OC)C1)[C@@H]32` [Vincamine] gave an IC50 of 1.33 µM.

In the case of `CCC1=C[C@@H]2CN(C1)Cc1c([nH]c3ccccc13)[C@@](C(=O)OC)(c1cc3c(cc1OC)N(C)[C@H]1[C@@](O)(C(=O)OC)[C@H](OC(C)=O)[C@]4(CC)C=CCN5CC[C@]31[C@@H]54)C2` [Vinorelbine tartrate], the IC50 is 6.49 µM.

As for `CCOC(=O)C1=C[C@]2(CC)CCCN3CCc4c(n1c1ccccc41)[C@@H]32` [Vinpocetine], the IC50 was 0.169 µM.

As a reminder, the IC50 is the midpoint of a concentration-inhibition curve. A low value points to higher potency.
